From publication PMC12040169 (PLOS Biology, 2025) come the findings set out here.

The data set is described as follows: in vitro. Particulars: human, hela cells, % viability.

By viability is commonly meant a read-out of living cells in per cent, often relative to untreated cells.

In the case of `COc1ccc(CCNC(=O)c2nc3ncccn3n2)cc1OC` [CBK268795], the viability at 28.5 h, 10 µM stood at 90.4%.

In the case of `CCOCCNS(=O)(=O)c1ccc(C(C)(C)CC)cc1` [CBK044655], the viability at 28.5 h, 10 µM is 98.2%.

As for `Cc1ccc(CN[C@@H]2COC[C@H]2Cc2cc(C)no2)cc1` [CBK283030], the viability at 28.5 h, 10 µM was 106%.

Regarding `CC(CC(=O)O)CC(=O)N1CCN(c2ccccn2)CC1` (stereo not drawn) [CBK286839], the viability at 28.5 h, 10 µM stood at 107%.

Take `O=C(CCc1ccccc1)N1CCCC1c1cccc(Cc2ccccc2F)n1` (stereo not drawn) [CBK286208]: the viability at 28.5 h, 10 µM is 118%.

As for `O=C(NC1CCCCC1)c1cc(Br)cnc1NCCCn1ccnc1` [CBK076494], the viability at 28.5 h, 10 µM came out at 99.7%.

Take `CCc1nc2ccc(C(=O)Nc3cccc(NS(C)(=O)=O)c3)cn2c1N(C)CCCc1ccccc1` [CBK146670]: the viability at 28.5 h, 10 µM stood at 101%.

As for `CN(C)CCCNc1nc(-c2cccc(Cl)c2)nc2ccccc12` [CBK267284C], the viability at 28.5 h, 10 µM turned out to be 81.5%.

Turning to `CC(NC(=O)CCN1CCN(C)CC1)c1cc2cc(Cl)ccc2o1` (stereo not drawn) [CBK281601], the viability at 28.5 h, 10 µM stood at 102%.

As to `O=C(Nc1ccc(F)cc1)c1c(NS(=O)(=O)Cc2ccccc2[N+](=O)[O-])sc2c1CCCC2` [CBK028654], the viability at 28.5 h, 10 µM stood at 85.3%.

Consider `Cn1c(=O)c2ncn(CC(=O)Nc3ccc(N4CCN(Cc5ccccc5)CC4)cc3)c2n(C)c1=O` [CBK266875], for which the viability at 28.5 h, 10 µM is 99.7%.

Turning to `Cc1noc(C)c1S(=O)(=O)Nc1c(C(=O)N2CCN(C)CC2)[nH]c2ccccc12` [CBK050057], the viability at 28.5 h, 10 µM was 98.9%.

Take `Cc1ccccc1-n1c(SC(C)C)nc2sc3c(c2c1=O)CC(C)(C)OC3` [CBK091874]: the viability at 28.5 h, 10 µM stood at 91.2%.

Consider `CC1(C)NC(=O)N(CC(O)CN(c2cc(Cl)ccc2Cl)S(=O)(=O)c2ccccc2)C1=O` (stereo not drawn) [CBK033672], for which the viability at 28.5 h, 10 µM stood at 91.4%.

Take `Cc1c(C(=O)Nc2sc3c(c2C(=O)NCc2cccnc2)CCC3)oc2ccccc12` [CBK269491]: the viability at 28.5 h, 10 µM turned out to be 87.8%.

In the case of `Cc1c(OCCC2CCCCN2C)ccc2c(=O)cc(N3CCOCC3)oc12` (stereo not drawn) [CBK016644], the viability at 28.5 h, 10 µM worked out at 91.8%.

Regarding `CCOc1cc(/C=C/c2ccc3cccc(O)c3n2)cc(Br)c1O` [CBK264451], the viability at 28.5 h, 10 µM is 95%.

On to `Cc1ccc2[nH]c(C)c(CC(=O)N(C)CCN(C)C)c2c1` [CBK282674], for which the viability at 28.5 h, 10 µM came out at 105%.

`COc1ccc(CN(C)c2c(C)nc3c(OCC(=O)C(C)(C)C)cccn23)cc1` [CBK147458]: the viability at 28.5 h, 10 µM was 100%.

`COc1ccc(C(NC(=O)C2CCN(Cc3ccc4c(c3)OCO4)CC2)c2ccccc2C)cn1` (stereo not drawn) [CBK081453T]: the viability at 28.5 h, 10 µM turned out to be 121%.

Regarding `CCCOc1ccc(-c2nn(-c3ccccc3)cc2/C=C2\SC(=S)N(CC(=O)O)C2=O)cc1` [CBK264525], the viability at 28.5 h, 10 µM worked out at 111%.

Consider `O=C(CCCC(=O)N1CCCC1)N1CCCC1` [CBK006992], for which the viability at 28.5 h, 10 µM worked out at 108%.

For the compound `CC(C)C(NC(=O)c1cccc(-n2cnnc2)c1)c1cccs1` (stereo not drawn) [CBK282442], the viability at 28.5 h, 10 µM was 111%.

`CC1CN(Cc2ccccc2)CCN1c1cnccn1` (stereo not drawn) [CBK013684]: the viability at 28.5 h, 10 µM worked out at 102%.

With `O=C(O)c1nccnc1-c1ccc(Cn2ccc3ccccc32)cc1` [CBK050811], the viability at 28.5 h, 10 µM was determined as 100%.

For `COc1ccc(CCNS(=O)(=O)c2cc([N+](=O)[O-])ccc2C)cc1OC` [CBK267412], the viability at 28.5 h, 10 µM was found to be 94.2%.

Turning to `CC(C)COc1ccc(-c2nonc2NC(=O)c2ccco2)cc1` [CBK299802], the viability at 28.5 h, 10 µM came out at 99.1%.

For the compound `COC(=O)[C@@H](C)NC(=O)[C@@H]1CN(S(C)(=O)=O)CCN1C(=O)c1cccs1` [CBK289623], the viability at 28.5 h, 10 µM was determined as 89.6%.

Take `COC(=O)CCc1ccc(S(=O)(=O)N2CCCN(Cc3c[nH]c(=O)[nH]c3=O)CC2)cc1` [CBK063082]: the viability at 28.5 h, 10 µM was 113%.

Take `O=C(O)c1cc2ccccc2[nH]1` [CBK015732]: the viability at 28.5 h, 10 µM was 100%.

In the case of `O=C(CCc1ccc(Cl)cc1)NCCn1cncn1` [CBK283184], the viability at 28.5 h, 10 µM came to 98.6%.

Turning to `O=C(COCc1nc2ccccc2[nH]1)N1CCC(c2ccccc2)C1` (stereo not drawn) [CBK281840], the viability at 28.5 h, 10 µM worked out at 97.7%.

`CCN(CC)S(=O)(=O)c1ccc(CNC(=O)Cc2ccc(Cl)cc2)cc1` [CBK306188]: the viability at 28.5 h, 10 µM came to 105%.

In the case of `O=C(CN1CCOCC1)Nc1ccc(NC(=O)CN2CCOCC2)c(Cl)c1` [CBK264243], the viability at 28.5 h, 10 µM was 112%.

For the compound `Cc1cc(Cl)c(S(=O)(=O)Nc2ccc3c(c2)OCCO3)cc1OCC(=O)NC1CCCCC1` [CBK266786], the viability at 28.5 h, 10 µM was determined as 95.5%.

Regarding `O=C(O)CC1C(=O)NCCN1Cc1ccc(F)c(F)c1` (stereo not drawn) [CBK270008], the viability at 28.5 h, 10 µM was 85.3%.

Turning to `COCCNc1ncnc2sc3c(c12)CCCC3` [CBK287583], the viability at 28.5 h, 10 µM came to 98.4%.

As for `Cc1cnn(CC(=O)NC(Cc2ccsc2)c2nccs2)c1` (stereo not drawn) [CBK282825], the viability at 28.5 h, 10 µM is 105%.

Regarding `CC(=O)N[C@@H](CC[S+](C)[O-])C(=O)N1CCC2(C/C=C/C[C@@H]3COCC[C@@H]3NC(=O)[C@@H](CC(C)C)NC2=O)CC1` (stereo partly drawn) [CBK292192], the viability at 28.5 h, 10 µM amounted to 105%.

`Cc1nnc(CN2CCOC(c3nc(C(C)(C)C)cs3)C2)n1C` (stereo not drawn) [CBK305772]: the viability at 28.5 h, 10 µM was determined as 93.1%.

As to `Cc1ccc(S(=O)(=O)N2CCN(C)CC2)cc1NC(=O)c1ccc(Br)o1` [CBK034260C], the viability at 28.5 h, 10 µM was found to be 99.3%.

For `CCOC(=O)C1=C(c2ccccc2)Nc2ncnn2C1c1cccc(OC)c1OC` (stereo not drawn) [CBK266353], the viability at 28.5 h, 10 µM is 106%.

Take `CC(C)CC(CO)Nc1ncnc2ccc(S(C)(=O)=O)cc12` (stereo not drawn) [CBK304203]: the viability at 28.5 h, 10 µM is 107%.

In the case of `O=C(CSc1nnc(-c2cccnc2)n1Cc1ccccc1)Nc1ccc(Br)cc1` [CBK267527], the viability at 28.5 h, 10 µM worked out at 94.5%.

Take `CCCN(c1nc(C)c(Br)c(OC)n1)S(=O)(=O)c1ccc(C)cc1` [CBK028072]: the viability at 28.5 h, 10 µM stood at 105%.

Consider `c1ccc(-c2cc(CC3(NCc4cccnc4)COC3)no2)nc1` [CBK289238], for which the viability at 28.5 h, 10 µM was found to be 83.5%.

In the case of `O=S(=O)(c1ccccc1)C1CC1` [CBK023184], the viability at 28.5 h, 10 µM worked out at 89%.

As for `C[C@@H]1CN(C(=O)c2cc3ccccc3n2C)C[C@H](C)O1` [CBK200234], the viability at 28.5 h, 10 µM was found to be 91.4%.

As for `Cc1cc(C)cc(Nc2c(-c3ccc(C(=O)O)cc3)nc3cnccn23)c1` [CBK287166], the viability at 28.5 h, 10 µM worked out at 73.3%.

As for `COc1cccc2c1OCC[C@@H]2Oc1cncc(N2CCNCC2)n1` [CBK172305G], the viability at 28.5 h, 10 µM amounted to 106%.

For `COc1ccc(C(CC(=O)c2ccc(C)cc2)Nc2ccc([N+](=O)[O-])cc2)cc1` (stereo not drawn) [CBK268187], the viability at 28.5 h, 10 µM amounted to 92.2%.

For `CC(=O)c1c(C)oc2ccc(N(C(=O)c3cccc([N+](=O)[O-])c3)S(=O)(=O)c3cccc4cccnc34)cc12` [CBK267044], the viability at 28.5 h, 10 µM came to 70.2%.

In the case of `O=C(O)CCc1nn2c3ccccc3n(CC(=O)c3cccs3)c2nc1=O` [CBK267518], the viability at 28.5 h, 10 µM stood at 99.8%.

With `O=C(O)C1CC1(C(=O)O)C(=O)O` (stereo not drawn) [CBK261009], the viability at 28.5 h, 10 µM is 103%.

In the case of `CCc1ccc(CNC(=O)Cn2nnnc2-c2ccc(CN3CCC(C)CC3)cn2)cc1` [CBK153930C], the viability at 28.5 h, 10 µM came to 85.6%.

For `COCc1ccc(C(=O)N2CCC(c3cc4cnccc4[nH]3)CC2)cc1` [CBK283448], the viability at 28.5 h, 10 µM worked out at 99.3%.

Turning to `CCn1cc(CC(=O)NCCn2ccc(C)n2)c2ccccc21` [CBK282670], the viability at 28.5 h, 10 µM came out at 96.7%.

As to `O=C(O)c1cc(C(=O)O)n(Cc2ccccc2Cl)n1` [CBK269381], the viability at 28.5 h, 10 µM was determined as 88.1%.

`CC(C)Cc1ccc(S(=O)(=O)Nc2ccc3[nH]c(=O)[nH]c3c2)cc1` [CBK270131]: the viability at 28.5 h, 10 µM turned out to be 94.3%.

With `CS(=O)(=O)N(CC(=O)N1CCN(Cc2ccc3c(c2)OCO3)CC1)c1cccc(C(F)(F)F)c1` [CBK265329], the viability at 28.5 h, 10 µM was 77.7%.

As to `N#Cc1ccccc1C(=O)N(CCO)Cc1ccccc1` [CBK304844], the viability at 28.5 h, 10 µM amounted to 89.8%.

For the compound `Cc1ccc(OCCNC(=O)NC(=O)C2CCN(C)CC2)c2c1CCC2` [CBK034824], the viability at 28.5 h, 10 µM stood at 115%.

`Cc1cc(C)nc(Nc2ccc(C3CCCN(C(=O)c4c(C)oc5c4CCCC5)C3)nc2)n1` (stereo not drawn) [CBK285988]: the viability at 28.5 h, 10 µM is 109%.

Consider `Cc1c(C(C)NC(=O)C2C3CCC(O3)C2C(=O)O)cnn1C` (stereo not drawn) [CBK286887], for which the viability at 28.5 h, 10 µM was found to be 91.4%.

Consider `Cc1nn2c(=O)[nH]ncc2c1-c1ccccc1C(=O)N(C(C)C)C(C)C` [CBK307043], for which the viability at 28.5 h, 10 µM was 109%.

On to `CN1CCN(C(=O)c2cccc(-n3cccn3)c2)C(c2ccccc2)C1` (stereo not drawn) [CBK282013], for which the viability at 28.5 h, 10 µM worked out at 90.5%.

For the compound `Cc1cc(C)n(CCOc2nonc2N)n1` [CBK025818], the viability at 28.5 h, 10 µM was 117%.

For the compound `Nc1nnc(-c2cccc(Cl)c2Cl)c(N)n1` [CBK011590], the viability at 28.5 h, 10 µM is 85.8%.

Take `O=C(Nc1ccc(C(F)(F)F)cc1)N(Cc1ccc2ccccc2c1)CC1CCNCC1` [CBK056720]: the viability at 28.5 h, 10 µM was 88.9%.

Take `COc1cc2nc(N3CCC4(CCN(C(=O)C(c5ccccc5)C(C)C)C4)C3)nc(N)c2cc1OC` (stereo not drawn) [CBK160790]: the viability at 28.5 h, 10 µM stood at 76.3%.

With `CCn1c2ccccc2c2cc(C(N)=O)c(N)nc21` [CBK019787], the viability at 28.5 h, 10 µM is 85.2%.

Take `Cc1noc2nc(-c3cccnc3)cc(C(=O)O)c12` [CBK288207]: the viability at 28.5 h, 10 µM is 92.4%.

For `Cc1ccc(C2=N/C(=C/c3ccc(OS(=O)(=O)c4ccc(C)c([N+](=O)[O-])c4)cc3)C(=O)O2)cc1` [CBK264647], the viability at 28.5 h, 10 µM amounted to 99.1%.

Regarding `O=C(CN1C(=O)S/C(=C\c2ccc(OCc3ccccc3)cc2)C1=O)c1ccccc1` [CBK264636], the viability at 28.5 h, 10 µM is 95.1%.

Take `Clc1ccc(CN2CCCN(c3cc(OC4CCCCC4)ncn3)CC2)cc1Cl` [CBK083338T]: the viability at 28.5 h, 10 µM is 79.5%.

Turning to `COc1ccc2cc(CNC(Cc3ccccc3)c3ccccc3)c(Cl)nc2c1` (stereo not drawn) [CBK295357], the viability at 28.5 h, 10 µM was 93.3%.

In the case of `CC1=CC(=O)OC1(O)c1ccc(Br)cc1` (stereo not drawn) [CBK022687], the viability at 28.5 h, 10 µM is 91.6%.

Consider `COc1ccc(Nc2cc(-c3ccc(SC)cc3)ncn2)c(C)c1` [CBK091042], for which the viability at 28.5 h, 10 µM was found to be 89.2%.
